Structures can show the parent of a compound that is named as a salt.
These compounds were tested against truncated PI3Kα (p110α/iSH2 p85α) (Homo sapiens (Human), UniProt P42336) (assay: PI3KA_Act fluorescence polarization kinase assay (Ki)). Conditions: 1 mM ATP.
Chain of truncated PI3Kα (p110α/iSH2 p85α) (P42336 whole entry, the tested form may be a part): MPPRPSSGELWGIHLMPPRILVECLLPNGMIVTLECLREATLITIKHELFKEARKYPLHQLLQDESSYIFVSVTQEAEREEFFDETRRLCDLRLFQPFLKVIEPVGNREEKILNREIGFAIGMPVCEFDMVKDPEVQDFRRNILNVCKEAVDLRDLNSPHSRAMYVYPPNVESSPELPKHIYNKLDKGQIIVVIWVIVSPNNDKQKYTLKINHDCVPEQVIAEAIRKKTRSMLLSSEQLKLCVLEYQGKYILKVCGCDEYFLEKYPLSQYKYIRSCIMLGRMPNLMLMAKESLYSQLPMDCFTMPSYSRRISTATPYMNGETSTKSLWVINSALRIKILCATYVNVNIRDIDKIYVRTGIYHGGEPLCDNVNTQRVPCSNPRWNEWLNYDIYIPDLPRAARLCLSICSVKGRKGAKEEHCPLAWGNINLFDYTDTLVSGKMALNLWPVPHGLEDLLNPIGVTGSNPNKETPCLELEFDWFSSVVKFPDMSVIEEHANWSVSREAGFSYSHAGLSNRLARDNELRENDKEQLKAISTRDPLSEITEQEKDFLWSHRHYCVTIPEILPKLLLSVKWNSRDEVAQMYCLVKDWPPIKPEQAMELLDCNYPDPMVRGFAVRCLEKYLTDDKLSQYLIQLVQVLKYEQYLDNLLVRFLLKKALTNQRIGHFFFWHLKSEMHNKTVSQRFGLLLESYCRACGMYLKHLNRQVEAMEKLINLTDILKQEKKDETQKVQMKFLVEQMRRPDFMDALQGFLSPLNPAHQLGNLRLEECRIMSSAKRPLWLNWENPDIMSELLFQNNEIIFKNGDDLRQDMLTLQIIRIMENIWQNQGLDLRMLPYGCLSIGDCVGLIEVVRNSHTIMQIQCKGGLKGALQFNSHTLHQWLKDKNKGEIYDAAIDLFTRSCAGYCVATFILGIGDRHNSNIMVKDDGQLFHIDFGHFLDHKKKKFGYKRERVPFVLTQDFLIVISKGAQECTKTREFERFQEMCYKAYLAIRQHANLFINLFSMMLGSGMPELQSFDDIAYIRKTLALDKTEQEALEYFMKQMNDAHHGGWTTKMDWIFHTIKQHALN
Type: biochemical
Method in brief: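 Ki values result from fitting fluorescence polarization signals to the Morrison equation for tight-binding competitive inhibitors. The detector was GST-Grp1 PH domain with TAMRA-PIP3, read after a 30 min room-temperature reaction of 0.5 nM truncated PI3Kα and 30 μM PIP2 at pH 7.4 in HEPES/NaCl/MgCl2/DTT/CHAPS buffer. Compounds were tested as 12-point 3-fold dilutions from 3 μM.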
`C[C@H]1COCCN1c1nc(-c2cnc(N)nc2)c2c(n1)N([C@@H]1[C@@H]3C[C@H]1N(C(=O)OC(C)(C)C)C3)CC2` [Example 524, tert-butyl (1R,4R,5R)-5-{4-(2-aminopyrimidin-5-yl)-2-[(3S)-3-methylmorpholin-4-yl]-5,6-dihydro-7H-pyrrolo[2,3-d]pyrimidin-7-yl}-2-azabicyclo[2.1.1]hexane-2-carboxylate] showed a Ki of 1.87 nM. `C[C@H]1COCCN1c1nc(-c2cnc(N)nc2)c2c(n1)N([C@H]1[C@@H]3CN[C@H]1C3)CC2` [Example 525, 5-{7-[(1S,4S,5S)-2-azabicyclo[2.1.1]hex-5-yl]-2-[(3S)-3-methylmorpholin-4-yl]-6,7-dihydro-5H-pyrrolo[2,3-d]pyrimidin-4-yl}pyrimidin-2-amine hydrochloride] showed a Ki of 4.5 nM. In the case of `C[C@H]1COCCN1c1nc(-c2cnc(N)nc2)c2c(n1)N([C@@H]1[C@H]3CN[C@@H]1C3)CC2` [Example 526, 5-{7-[(1R,4R,5R)-2-azabicyclo[2.1.1]hex-5-yl]-2-[(3S)-3-methylmorpholin-4-yl]-6,7-dihydro-5H-pyrrolo[2,3-d]pyrimidin-4-yl}pyrimidin-2-amine hydrochloride], the Ki is reported as 9.43 nM. For `C[C@H]1COCCN1c1nc(-c2cnc(N)nc2)c2c(n1)N([C@@]13C[C@@H]1CN(C(=O)OC(C)(C)C)C3)CC2` [Example 527, tert-butyl (1S,5R)-1-{4-(2-aminopyrimidin-5-yl)-2-[(3S)-3-methylmorpholin-4-yl]-5,6-dihydro-7H-pyrrolo[2,3-d]pyrimidin-7-yl}-3-azabicyclo[3.1.0]hexane-3-carboxylate], the “PI3KA_Act Ki” value was under 0.018 nM. In the case of `C[C@H]1COCCN1c1nc(-c2cnc(N)nc2)c2c(n1)N([C@]13C[C@H]1CN(C(=O)OC(C)(C)C)C3)CC2` [Example 528, tert-butyl (1R,5S)-1-{4-(2-aminopyrimidin-5-yl)-2-[(3S)-3-methylmorpholin-4-yl]-5,6-dihydro-7H-pyrrolo[2,3-d]pyrimidin-7-yl}-3-azabicyclo[3.1.0]hexane-3-carboxylate], the “PI3KA_Act Ki” value is reported as 0.092 nM. In the case of `C[C@H]1COCCN1c1nc(-c2cnc(N)nc2)c2c(n1)N([C@@]13CNC[C@@H]1C3)CC2.Cl` [Example 529, 5-{7-[(1R,5S)-3-azabicyclo[3.1.0]hex-1-yl]-2-[(3S)-3-methylmorpholin-4-yl]-6,7-dihydro-5H-pyrrolo[2,3-d]pyrimidin-4-yl}pyrimidin-2-amine hydrochloride], the “PI3KA_Act Ki” value is reported as 0.595 nM. With `C[C@H]1COCCN1c1nc(-c2cnc(N)nc2)c2c(n1)N([C@]13CNC[C@H]1C3)CC2.Cl` [Example 530, 5-{7-[(1S,5R)-3-azabicyclo[3.1.0]hex-1-yl]-2-[(3S)-3-methylmorpholin-4-yl]-6,7-dihydro-5H-pyrrolo[2,3-d]pyrimidin-4-yl}pyrimidin-2-amine hydrochloride] the “PI3KA_Act Ki” value was 2.624 nM. In the case of “tert-butyl (cis-3-{4-(2-aminopyrimidin-5-yl)-2-[(3S)-3-methylmorpholin-4-yl]-5,6-dihydro-7H-pyrrolo[2,3-d]pyrimidin-7-yl}cyclobutyl)methylcarbamate [Example 448]”, the “PI3KA_Act Ki” value is reported as 0.690 nM. “tert-butyl (trans-3-{4-(2-aminopyrimidin-5-yl)-2-[(3S)-3-methylmorpholin-4-yl]-5,6-dihydro-7H-pyrrolo[2,3-d]pyrimidin-7-yl}cyclobutyl)methylcarbamate [Example 449]” was tested, and the “PI3KA_Act Ki” value was 0.294 nM.

What follows are compounds tested against full-length PI3Kα (full-length p110α/p85α) (Homo sapiens (Human), UniProt P42336) (assay: PI3KA_FL fluorescence polarization kinase assay (Ki)). Conditions: 41 μM ATP.
Chain of full-length PI3Kα (full-length p110α/p85α) (P42336 whole entry): as the sequence (P42336 whole entry, the tested form may be a part) above
Chain of full-length PI3Kα (full-length p110α/p85α) (P27986 whole entry partner): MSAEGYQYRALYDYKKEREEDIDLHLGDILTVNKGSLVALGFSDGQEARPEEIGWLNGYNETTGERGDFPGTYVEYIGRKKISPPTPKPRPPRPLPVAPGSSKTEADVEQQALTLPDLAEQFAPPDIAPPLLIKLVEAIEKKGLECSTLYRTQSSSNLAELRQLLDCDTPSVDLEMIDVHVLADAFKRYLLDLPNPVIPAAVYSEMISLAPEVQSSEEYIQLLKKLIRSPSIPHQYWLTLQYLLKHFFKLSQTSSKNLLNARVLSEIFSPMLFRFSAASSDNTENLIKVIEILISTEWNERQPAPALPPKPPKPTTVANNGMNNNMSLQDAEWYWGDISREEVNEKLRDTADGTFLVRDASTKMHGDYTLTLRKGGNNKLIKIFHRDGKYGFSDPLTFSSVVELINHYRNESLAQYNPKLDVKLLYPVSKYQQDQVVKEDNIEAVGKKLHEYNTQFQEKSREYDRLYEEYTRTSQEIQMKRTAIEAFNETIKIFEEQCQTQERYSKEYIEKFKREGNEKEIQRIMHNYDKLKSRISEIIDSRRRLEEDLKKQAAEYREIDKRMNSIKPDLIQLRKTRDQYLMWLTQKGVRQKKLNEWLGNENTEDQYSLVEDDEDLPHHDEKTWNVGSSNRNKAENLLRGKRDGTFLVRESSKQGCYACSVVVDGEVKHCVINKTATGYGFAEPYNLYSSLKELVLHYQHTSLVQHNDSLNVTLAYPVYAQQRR
Type: biochemical
Text: Enzyme Production for Biochemical Assays: 1) PI3Kα Complex (Full Length p110α and p85α)(“PI3KA_FL”)
Genes encoding for full length p110α and p85α subunits of PI3Kα complex were subcloned from existing constructs into pFASTBAC Dual vector (Life Technologies, Carlsbad, Calif.) using standard cloning procedures. Gene encoding p110α subunit was subcloned into polyhedrine promoter while gene encoding p85α subunit was subcloned into p10 promoter. Additionally, sequence encoding for histidine tag and Tobacco Etch Virus (“TEV”) cleavage site preceded p110α ORF (Open Reading Frame). Recombinant baculovirus was generated using Bac-to-Bac protocol (Life Technologies, Carlsbad, Calif.) and large scale expression was conducted in Sf21 (Life Technologies, Carlsbad, Calif.) cells at a multiplicity of infection (“MOI”)=1 for 72 hours. Cells were lyzed in 50 mM Tris pH 8.0, 250 mM NaCl, 5% glycerol, 0.25 mM TCEP, and 20 mM imidazole. The PI3Kα complex was purified from clarified supernatant using Immobilized Metalo Affinity Chromatography (“IMAC”). The protein was eluted from the column using 50 mM Tris pH 8.0, 200 mM NaCl, 5% glycerol, 0.25 mM TCEP, and 200 mM imidazole, and further desalted into 50 mM Tris pH 8.0, 20 mM NaCl, and 0.25 mM TCEP prior to loading on MonoQ sepharose (GE Healthcare, Piscataway, N.J.). PI3Kα complex was eluted from MonoQ sepharose over 20 column volumes using 0-30% gradient of buffer B (50 mM Tris pH 8.0, 1 M NaCl, and 0.25 mM TCEP). The peak fractions were pulled together and loaded on Superdex 200 26/60 SEC column equilibrated in 50 mM Tris pH 8.0, 200 mM NaCl, and 0.5 mM TCEP. […] Purity and integrity of the complex was confirmed using LCMS, analytical SEC and SDS-PAGE (sodium dodecyl sulfate polyacrylamide gel electrophoresis) analysis.
The biochemical assays of kinase activity of full-length PI3Kα (full-length p110α/p85a) or truncated PI3Kα (p110α/iSH2 p85a) were conducted using a fluorescence polarization format similar to the procedure of Yuan J., et al., (2011) “PF-04691502, a Potent and Selective Oral Inhibitor of PI3K and mTOR Kinases with Antitumor Activity”, Mol Cancer Ther. 10, 2189-2199. The enzymatic reactions were conducted in 50 μL volumes in 96-well plates. The reactions contained human recombinant PI3Kα (2 nM full-length p110α/p85α or 0.5 nM p110α/iSH2 p85) and 30 μM phosphatidylinositol 4,5-bisphosphate (“PIP2”) (Cayman Chemical Company, Ann Arbor, Mich.) and were sonicated for 1 minute prior to adding PI3Kα enzyme (PI3KA_Act or PI3KA_FL), DMSO or test compound (12-point 3-fold serial dilution, 3 μM top dose, 2° A) DMSO final concentration), 5 mM MgCl2, 50 mM HEPES pH 7.4, 150 mM NaCl, 1 mM DTT ((2S,3S)-1,4-bis(sulfanyl)butane-2,3-diol), and 0.05% 3-[(3-cholamidopropyl)dimethylammonio]-1-propanesulfonate (“CHAPS”). […] The reactions were incubated for 30 min at room temperature, stopped with EDTA pH 8 (10 mM final concentration). In a detection plate, 15 μL of detector/probe mixture, containing 480 nM GST-Grp1 PH domain protein (University of Dundee, Dundee, UK) and 12 nM carboxytetramethylrhodamine (“TAMRA”)-tagged fluorescent phosphatidylinositol (3,4,5)-triphosphate (“PIP3”) (Echelon Biosciences, Inc., Salt Lake City, Utah) in assay buffer, was mixed with 15 μL of kinase reaction mixture. The plate was shaken for 30 minutes and fluorescence polarization values were measured on an LJL Analyst HT plate reader (Molecular Devices, Sunnyvale, Calif.). […] The inhibition constants (Ki) were calculated by fitting fluorescence polarization values, corresponding to initial reaction rates, to the Morrison equation (Morrison, J. F. (1969) Kinetics of the reversible inhibition of enzyme catalysed reactions by tight-binding inhibitors. Biochim. Biophys. Acta 185, 269-286) for tight-binding competitive inhibitors using non-linear regression method (GraphPad Prism, GraphPad Software, San Diego, Calif.).
With `Nc1ncc(-c2nc(N3CCOCC3)nc3c2CCN3C2CCC(F)(F)C2)cn1` (racemic) [Example 19] the “PI3KA_FL Ki” value was 0.528 nM. With `Nc1ncc(-c2nc(N3CCOCC3)nc3c2CCN3C2CCCOC2)cn1` (racemic) [Example 37] the “PI3KA_FL Ki” value was 7.189 nM. `CC(=O)N1CCCC(N2CCc3c(-c4cnc(N)nc4)nc(N4CCOCC4)nc32)C1` (racemic) [Example 51] was tested, and the “PI3KA_FL Ki” value was 18.619 nM. In the case of `CC(=O)N1C[C@@H](F)[C@H](N2CCc3c(-c4cnc(N)nc4)nc(N4CCOCC4)nc32)C1` (single isomer, unassigned) [Example 66], the “PI3KA_FL Ki” value is reported as 0.926 nM. With `CC(=O)N1C[C@H](F)[C@@H](N2CCc3c(-c4cnc(N)nc4)nc(N4CCOCC4)nc32)C1` (single isomer, unassigned) [Example 67] the “PI3KA_FL Ki” value was 1.899 nM. With `CC(=O)N1C[C@@H](N2CCc3c(-c4cnc(N)nc4)nc(N4CCOCC4)nc32)[C@@H](F)C1` (single isomer, unassigned) [Example 75] the “PI3KA_FL Ki” value was 1.106 nM. With `C[C@H]1COCCN1c1nc(-c2cnc(N)nc2)c2c(n1)N([C@@H]1CCC(F)(F)C1)CC2` (single isomer, unassigned) [Example 88] the “PI3KA_FL Ki” value was 0.674 nM. In the case of `C[C@H]1COCCN1c1nc(-c2cnc(N)nc2)c2c(n1)N([C@H]1CCC(F)(F)C1)CC2` (single isomer, unassigned) [Example 89], the “PI3KA_FL Ki” value is reported as 1.247 nM. For `CC(=O)N1CC[C@@H](N2CCc3c(-c4cnc(N)nc4)nc(N4CCOCC4)nc32)C1` [Example 11], the “PI3KA_FL Ki” value was 4.095 nM. For `CC(=O)N1CC[C@H](N2CCc3c(-c4cnc(N)nc4)nc(N4CCOCC4)nc32)C1` [Example 12], the “PI3KA_FL Ki” value was 1.130 nM. `Nc1ncc(-c2nc(N3CCOCC3)nc3c2CCN3C2CCC2)cn1` [Example 14] was tested, and the “PI3KA_FL Ki” value was 6.843 nM. In the case of `CS(=O)(=O)[C@H]1C[C@H](N2CCc3c(-c4cnc(N)nc4)nc(N4CCOCC4)nc32)C1` [Example 15], the “PI3KA_FL Ki” value is reported as 0.856 nM. For `Nc1ncc(-c2nc(N3CCOCC3)nc3c2CCN3[C@H]2CCOC2)cn1` [Example 16], the “PI3KA_FL Ki” value was 1.423 nM. In the case of `Nc1ncc(-c2nc(N3CCOCC3)nc3c2CCN3[C@@H]2CCOC2)cn1` [Example 17], the “PI3KA_FL Ki” value is reported as 4.273 nM. `Nc1ncc(-c2nc(N3CCOCC3)nc3c2CCN3C2CCOCC2)cn1` [Example 18] was tested, and the “PI3KA_FL Ki” value was 2.706 nM. In the case of `CC(=O)N(C)[C@H]1C[C@H](N2CCc3c(-c4cnc(N)nc4)nc(N4CCOCC4)nc32)C1` [Example 21], the “PI3KA_FL Ki” value is reported as 5.393 nM. For `CN([C@H]1C[C@H](N2CCc3c(-c4cnc(N)nc4)nc(N4CCOCC4)nc32)C1)S(C)(=O)=O` [Example 22], the “PI3KA_FL Ki (nM)” value was “≦0.229 nM”. `CC(=O)N[C@H]1C[C@@H](N2CCc3c(-c4cnc(N)nc4)nc(N4CCOCC4)nc32)C1` [Example 23] was tested, and the “PI3KA_FL Ki” value was 9.696 nM. In the case of `Nc1ncc(-c2nc(N3CCOCC3)nc3c2CCN3[C@H]2C[C@H](O)C2)cn1` [Example 24], the “PI3KA_FL Ki” value is reported as 0.961 nM. For `Nc1ncc(-c2nc(N3CCOCC3)nc3c2CCN3[C@H]2CCN(C(=O)CO)C2)cn1` [Example 25], the “PI3KA_FL Ki (nM)” value was “≦0.229 nM”. With `Nc1ncc(-c2nc(N3CCOCC3)nc3c2CCN3[C@H]2CCN(S(N)(=O)=O)C2)cn1` [Example 26] the “PI3KA_FL Ki” value was 0.423 nM. In the case of `CNC(=O)N1CC[C@H](N2CCc3c(-c4cnc(N)nc4)nc(N4CCOCC4)nc32)C1` [Example 27], the “PI3KA_FL Ki” value is reported as 1.025 nM. With `COC(=O)N1CC[C@H](N2CCc3c(-c4cnc(N)nc4)nc(N4CCOCC4)nc32)C1` [Example 28] the “PI3KA_FL Ki” value was 0.521 nM. `CC(=O)N[C@H]1C[C@H](N2CCc3c(-c4cnc(N)nc4)nc(N4CCOCC4)nc32)C1` [Example 29] was tested, and the “PI3KA_FL Ki” value was 5.828 nM.
